Experimental data as given in PMC6222329 (Molecules : A Journal of Synthetic Chemistry and Natural …, 2018).
Where two headings read alike, the source gives them in different places.

How the values were obtained:
[1] = target: T1, human butyrylcholinesterase (BChE) (Homo sapiens, UniProt P06276); test: Enzyme kinetics of BChE inhibition (Lineweaver-Burk plots); assay type: biochemical
T1 construct: purchased Sigma-Aldrich (Steinheim, Germany)
Description: To recognize the inhibition type, enzyme kinetics studies were applied using Lineweaver–Burk plots. […]. […] This pattern also indicates a mixed-type inhibition.
The calculation of the inhibition constant (Ki) is an effective tool for measuring the affinity of an enzyme for […], and it is easily determined using the secondary plots of the Lineweaver–Burk equation. […].
In the kinetics studies, the assay protocol specified for the inhibition assay was identical. […]. Measurements were performed one of two ways, in the presence and in the absence of the inhibitor. […]. After addition of BChE (20 μL/well), the mixture was incubated under the same conditions as the activity assay. Then, the reaction was initiated by the addition of Ellman’s reagent (DTNB; 20 µL/well, 10 mM) and the substrate (10 µL/well, 75 mM). The absorbance was measured for 10 min at 412 nm. The enzyme solution was processed as a control. All readings were adjusted with blank-reading. The results were analyzed as Lineweaver–Burk plots using Microsoft Office Excel 2013 [15].

MTT cell viability assay = assay type: cell-based, murine; details: mouse, NIH3T3 murine embryonic fibroblast cells, 0.000316 µM to 1000 µM, read-out: IC50 against NIH3T3
Experimental: (§1) The active compounds (4a, 4b, 4e, 4i, 4m, 4n, 4o, and 4t) were chosen to determine their cytotoxic activity toward a murine fibroblast healthy cell line (NIH3T3). After incubating the cells with active compounds at concentrations of 0.000316 µM to1000 µM for 24 h, the cell viability was measured using the 3-(4,5-dimethylthiazol-2-yl)-2,5-diphenyltetrazolium (MTT) assay. The inhibition percentage was calculated for each concentration of the test compounds. The IC50 values of the compounds were determined using a non-linear regression analysis over the calculated percentage inhibition values, and they are presented in Table 2. Accordingly, the cytotoxicity test proposed that the active derivatives were nontoxic against NIH3T3 cells at their active concentrations against BChE.
(§2) Healthy murine embryonic fibroblast cells (NIH3T3 cell line) were used for the cytotoxicity tests. The cell line and selected compounds were prepared for an MTT assay as reported previously. The optical densities (OD) of 96 well plates were recorded at 540 nm. […]

BChE (Equine) = target: T2, BChE (Equine) (Equus caballus, UniProt P81908); test: biochemical; assay type: biochemical
T2 construct: purchased Sigma-Aldrich (Steinheim, Germany)
T2 sequence (P81908 whole entry): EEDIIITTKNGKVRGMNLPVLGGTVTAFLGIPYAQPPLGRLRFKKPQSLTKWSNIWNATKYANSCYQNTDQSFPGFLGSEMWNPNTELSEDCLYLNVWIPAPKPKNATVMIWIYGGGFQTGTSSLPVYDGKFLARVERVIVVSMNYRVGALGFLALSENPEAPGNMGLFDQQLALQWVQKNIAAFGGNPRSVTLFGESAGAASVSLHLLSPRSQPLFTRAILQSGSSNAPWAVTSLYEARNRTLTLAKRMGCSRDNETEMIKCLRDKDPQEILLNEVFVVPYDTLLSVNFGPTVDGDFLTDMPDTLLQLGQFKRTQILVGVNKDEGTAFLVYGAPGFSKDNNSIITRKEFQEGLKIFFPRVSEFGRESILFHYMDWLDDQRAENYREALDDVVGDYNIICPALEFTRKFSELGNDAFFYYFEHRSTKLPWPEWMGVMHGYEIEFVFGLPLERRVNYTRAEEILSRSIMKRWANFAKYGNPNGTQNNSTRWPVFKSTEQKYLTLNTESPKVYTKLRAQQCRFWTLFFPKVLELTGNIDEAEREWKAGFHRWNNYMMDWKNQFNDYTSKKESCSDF
Experimental: (§3) The assay was performed in two steps.
(§4) All enzymes were obtained from Sigma-Aldrich (Steinheim, Germany). Ellman’s reagent and the substrates were obtained from Fluka (Buchs, Switzerland). The chemicals used to prepare the buffer solution were purchased from Merck (Darmstadt, Germany).
(§5) The enzyme inhibitory activities of the synthesized compounds were investigated by applying Ellman’s method. Enzyme solutions were dissolved in gelatin solution (1%; 2.5 units/mL). […] Then, the reaction was initiated by the addition of Ellman’s reagent 5,5′-Dithiobis(2-nitrobenzoic acid) (DTNB; 20 µL/well, 10 mM) and the substrate (10 µL/well, 75 mM). […] The enzyme solution was processed as a control. All readings were adjusted with blank-reading. All assays were performed in four independent wells. […] Absorbance differences between the two readings were taken, and percentage inhibition rates were calculated according to the following formula: % Inhibition=[(A(C)−A(B))−(A(I)−A(B))]/(A(C)−A(B))×100.
(§6) • Blank (B): the well in which the inhibitor compound and substrate were not added; • Control (C): the well where the inhibitor compound was not added; • A(B): the difference in absorbance reading for the blank; • A(C): the difference in absorbance reading for the control; • A(I): the difference in absorbance reading for the inhibitor compounds.

BChE (Human) = target: T3, BChE (Human) (Homo sapiens, UniProt P06276); test: BChE inhibition, Ellman's method; assay type: biochemical
T3 construct: purchased Sigma-Aldrich (Steinheim, Germany)
T3 sequence (P06276 29-602): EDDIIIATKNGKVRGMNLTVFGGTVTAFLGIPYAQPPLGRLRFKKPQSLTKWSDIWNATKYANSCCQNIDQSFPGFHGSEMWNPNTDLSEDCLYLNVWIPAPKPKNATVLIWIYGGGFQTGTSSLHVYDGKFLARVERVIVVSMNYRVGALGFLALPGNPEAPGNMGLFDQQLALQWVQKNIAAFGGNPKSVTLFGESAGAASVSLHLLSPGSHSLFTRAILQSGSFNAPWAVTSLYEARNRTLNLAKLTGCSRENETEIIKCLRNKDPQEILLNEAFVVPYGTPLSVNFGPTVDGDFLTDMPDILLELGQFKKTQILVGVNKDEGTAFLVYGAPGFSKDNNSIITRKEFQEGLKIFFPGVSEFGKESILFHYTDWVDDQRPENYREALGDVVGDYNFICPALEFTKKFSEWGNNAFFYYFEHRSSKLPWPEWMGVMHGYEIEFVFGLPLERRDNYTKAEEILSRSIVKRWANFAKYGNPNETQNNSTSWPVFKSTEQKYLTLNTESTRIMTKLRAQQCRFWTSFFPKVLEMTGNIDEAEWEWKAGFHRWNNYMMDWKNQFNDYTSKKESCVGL
Experimental: as §3, §4, §5, §6

AChE (Human) = target: T4, AChE (Human) (Homo sapiens, UniProt P22303); test: AChE inhibition, Ellman's method; assay type: biochemical
T4 construct: purchased Sigma-Aldrich (Steinheim, Germany)
T4 sequence (P22303 32-614): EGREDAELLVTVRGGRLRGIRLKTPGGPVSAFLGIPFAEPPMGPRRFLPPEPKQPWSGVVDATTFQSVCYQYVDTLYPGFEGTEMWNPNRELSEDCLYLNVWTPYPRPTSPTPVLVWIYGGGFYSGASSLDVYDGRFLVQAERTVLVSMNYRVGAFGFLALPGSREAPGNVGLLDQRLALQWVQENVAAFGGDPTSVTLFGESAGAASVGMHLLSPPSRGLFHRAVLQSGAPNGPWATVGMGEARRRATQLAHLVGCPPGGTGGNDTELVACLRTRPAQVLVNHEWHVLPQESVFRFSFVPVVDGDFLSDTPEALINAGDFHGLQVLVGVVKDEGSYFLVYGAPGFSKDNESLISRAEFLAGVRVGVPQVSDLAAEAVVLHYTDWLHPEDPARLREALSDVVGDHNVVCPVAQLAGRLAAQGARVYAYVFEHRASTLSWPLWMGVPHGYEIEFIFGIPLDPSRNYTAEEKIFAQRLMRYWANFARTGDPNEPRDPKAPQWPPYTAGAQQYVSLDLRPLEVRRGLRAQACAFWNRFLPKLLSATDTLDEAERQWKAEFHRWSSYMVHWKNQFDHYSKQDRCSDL
Experimental: as §3, §4, §5, §6

[2] = target: T5, AChE (Electrophorus electricus) (Electrophorus electricus, UniProt O42275); test: AChE inhibition, Ellman's method; assay type: biochemical
T5 construct: purchased Sigma-Aldrich (Steinheim, Germany)
T5 sequence (O42275 24-633): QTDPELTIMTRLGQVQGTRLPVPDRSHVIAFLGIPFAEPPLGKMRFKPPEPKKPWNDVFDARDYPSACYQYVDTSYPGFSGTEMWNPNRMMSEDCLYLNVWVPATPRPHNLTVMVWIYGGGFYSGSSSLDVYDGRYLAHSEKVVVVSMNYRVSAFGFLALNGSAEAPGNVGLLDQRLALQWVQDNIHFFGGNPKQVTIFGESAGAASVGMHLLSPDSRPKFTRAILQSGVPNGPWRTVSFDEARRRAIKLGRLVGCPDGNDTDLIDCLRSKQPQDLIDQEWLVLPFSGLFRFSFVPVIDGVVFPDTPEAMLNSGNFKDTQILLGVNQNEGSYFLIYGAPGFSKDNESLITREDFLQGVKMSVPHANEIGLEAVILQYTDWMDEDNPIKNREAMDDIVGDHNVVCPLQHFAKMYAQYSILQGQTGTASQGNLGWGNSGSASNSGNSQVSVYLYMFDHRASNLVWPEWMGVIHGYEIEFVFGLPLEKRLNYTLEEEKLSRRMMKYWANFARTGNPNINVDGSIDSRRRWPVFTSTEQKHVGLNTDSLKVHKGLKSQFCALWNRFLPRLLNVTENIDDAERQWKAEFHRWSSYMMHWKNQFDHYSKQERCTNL
Experimental: as §3, §4, §5, §6

[3] = tested on: murine fibroblast healthy cell line (NIH3T3); test: MTT cell viability assay; assay type: cell-based; details: 24 h, 0.000316 µM to 1000 µM, read-out: IC50 against NIH3T3
Experimental: as §1, §2

[4] = read-out: BChE (Human) inhibitory activity (%) ± SD
[5] = read-out: AChE (Human) inhibitory activity (%) ± SD
[6] = read-out: AChE (Electrophorus electricus) inhibitory activity (%) ± SD

T1 sequence (P06276 29-602): as the sequence (P06276 29-602) above

For O=C(CSC(=S)N1CCN(Cc2ccc(C(F)(F)F)cc2)CC1)Nc1c2ccccc2nc2ccccc12 [Compound 4n, 2-(9-Acridinylamino)-2-oxoethyl 4-(4-(trifluoromethyl)benzyl)piperazine-1-carbodithioate], the “inhibition type of BChE” value ([1]; Lineweaver-Burk plot, inhibitor at IC50/2, IC50, 2 x IC50) was “mixed inhibition”, the Ki ([1]; secondary plot of Lineweaver-Burk, substrate BTCI, read-out: steady-state inhibition constant (Ki) against BChE) was 0.0175 µM and the IC50 at 24 h (MTT cell viability assay) was over 1000 µM. The IC50 (BChE (Equine)) was 0.015 ± 0.0006 µM, the inhibition at 1000 µM (BChE (Equine); 10^-3 M, read-out: BChE (Equine) inhibitory activity (%) ± SD) was 99.5 ± 2.97% and the inhibition at 100 µM (BChE (Equine); 10^-4 M, read-out: BChE (Equine) inhibitory activity (%) ± SD) was 99%. The inhibition at 10 µM (BChE (Equine); 10^-5 M, read-out: BChE (Equine) inhibitory activity (%) ± SD) was 92.5 ± 2.86%, the inhibition at 1 µM (BChE (Equine); 10^-6 M, read-out: BChE (Equine) inhibitory activity (%) ± SD) was 81.3 ± 1.25% and the inhibition at 0.1 µM (BChE (Equine); 10^-7 M, read-out: BChE (Equine) inhibitory activity (%) ± SD) was 49.3 ± 0.58%. It also gave an inhibition at 0.01 µM (BChE (Equine); 10^-8 M, read-out: BChE (Equine) inhibitory activity (%) ± SD) of 43.7 ± 1.11%, an inhibition at 0.001 µM (BChE (Equine); 10^-9 M, read-out: BChE (Equine) inhibitory activity (%) ± SD) of 39.25 ± 0.22% and an IC50 (BChE (Human)) of 0.014 ± 0.0005 µM. For the same compound, the inhibition at 0.001 µM (BChE (Human); [4]) was 37.2 ± 0.69%, the inhibition at 0.01 µM (BChE (Human); [4]) was 43.6 ± 0.84% and the inhibition at 0.1 µM (BChE (Human); [4]) was 50.5 ± 0.69%. The inhibition at 1 µM (BChE (Human); [4]) was 83.2 ± 1.07%, the inhibition at 10 µM (BChE (Human); [4]) was 93.7 ± 2.45% and the inhibition at 100 µM (BChE (Human); [4]) was 98.2%. For the same compound, the inhibition at 1000 µM (BChE (Human); [4]) was 99.3 ± 2.1%, the IC50 (AChE (Human)) was 41.1 ± 1.69 µM and the inhibition at 0.001 µM (AChE (Human); [5]) was 3 ± 0.12%. For the same compound, the inhibition at 0.01 µM (AChE (Human); [5]) was 5.51 ± 0.17%, the inhibition at 0.1 µM (AChE (Human); [5]) was 9.18 ± 0.22% and the inhibition at 1 µM (AChE (Human); [5]) was 10.5 ± 0.37%. For the same compound, the inhibition at 10 µM (AChE (Human); [5]) was 18.5 ± 0.54%, the inhibition at 100 µM (AChE (Human); [5]) was 68.4% and the inhibition at 1000 µM (AChE (Human); [5]) was 83.3 ± 1.78%. The IC50 [2] was 45.9 ± 1.58 µM, the inhibition at 0.001 µM [2, 6] was 6.91 ± 0.27% and the inhibition at 0.01 µM [2, 6] was 8.43 ± 0.38%. For the same compound, the inhibition at 0.1 µM [2, 6] was 11.3 ± 0.61%, the inhibition at 1 µM [2, 6] was 14.6 ± 0.76% and the inhibition at 10 µM [2, 6] was 22.4 ± 0.8%. It also gave an inhibition at 100 µM [2, 6] of 63.2% and an inhibition at 1000 µM [2, 6] of 81 ± 2.65%.

For Cc1ccc(CN2CCN(C(=S)SCC(=O)Nc3c4ccccc4nc4ccccc34)CC2)cc1 [Compound 4o, 2-(9-Acridinylamino)-2-oxoethyl 4-(4-methylbenzyl)piperazine-1-carbodithioate], the IC50 [3] was over 1000 µM, the IC50 (BChE (Equine)) was 1.07 ± 0.051 µM and the “BChE (Equine) inhibitory activity (%) ± SD” value (BChE (Equine); 10^-3 M) was 98.64±3.86%. The “BChE (Equine) inhibitory activity (%) ± SD” value (BChE (Equine); 10^-4 M) was “* 74.83 ± 2.17%”, the “BChE (Equine) inhibitory activity (%) ± SD” value (BChE (Equine); 10^-5 M) was 46.33±0.91% and the “BChE (Equine) inhibitory activity (%) ± SD” value (BChE (Equine); 10^-6 M) was 42.99±0.97%. For the same compound, the “BChE (Equine) inhibitory activity (%) ± SD” value (BChE (Equine); 10^-7 M) was 35.48±0.67%, the “BChE (Equine) inhibitory activity (%) ± SD” value (BChE (Equine); 10^-8 M) was 25.36±0.49% and the “BChE (Equine) inhibitory activity (%) ± SD” value (BChE (Equine); 10^-9 M) was 16.54±0.56%. The “BChE (Human) inhibitory activity (%) ± SD” value (BChE (Human); 10^-3 M) was 99.25±2.63%, the “BChE (Human) inhibitory activity (%) ± SD” value (BChE (Human); 10^-4 M) was “* 75.25 ± 2.08%” and the “BChE (Human) inhibitory activity (%) ± SD” value (BChE (Human); 10^-5 M) was 48.19±1.12%. The “BChE (Human) inhibitory activity (%) ± SD” value (BChE (Human); 10^-6 M) was 41.37±0.95%, the “BChE (Human) inhibitory activity (%) ± SD” value (BChE (Human); 10^-7 M) was 37.90±0.71% and the “BChE (Human) inhibitory activity (%) ± SD” value (BChE (Human); 10^-8 M) was 24.71±0.55%. The “BChE (Human) inhibitory activity (%) ± SD” value (BChE (Human); 10^-9 M) was 20.80±0.48%, the IC50 (BChE (Human); read-out: BChE (Human) IC50) was 1.07 ± 0.039 µM and the “AChE (Human) inhibitory activity (%) ± SD” value (AChE (Human); 10^-3 M) was 90.29±2.18%. For the same compound, the “AChE (Human) inhibitory activity (%) ± SD” value (AChE (Human); 10^-4 M) was 30.45 ± 1.15%, the “AChE (Electrophorus electricus) inhibitory activity (%) ± SD” value ([2]; 10^-3 M) was 94.97±3.61% and the “AChE (Electrophorus electricus) inhibitory activity (%) ± SD” value ([2]; 10^-4 M) was 25.30 ± 1.01%.
